In US8623400B2, “Drug-carrying contact lens and method for fabricating the same” (National Chiao Tung University, priority 2011, dated 2014):

Experiment: Drug-release test of drug-carrying contact lenses
Type: physicochemical
Text: The drug-release tests are respectively performed on the first encapsulation-type drug-carrying contact lens and the drug-soaking type contact lens of the present invention to understand the drug-release thereof.
In one embodiment, the encapsulation-type drug-carrying contact lens adopts a hydrophobic antibiotic—Azithromycin, which is an oral azalide group antibiotic that is a subgroup of macrolides, and which is a broad-spectrum antibiotic effective to Gram-positive bacteria, Gram-negative bacteria, anaerobic bacteria, Chlamydia, helicoids, etc. […] Such a phenomenon may be attributed to the fact: the higher the temperature, the higher the oscillation frequency of the drug molecules, and the greater the quantity of the drug molecules diffusing out. In the present invention, the drug-release amount can be quantitively controlled according to the application environment. Therefore, the present invention has a potential to realize a customized drug-carrying contact lens.
In one embodiment, the drug-soaking type drug-carrying contact lens adopts Vitamin B12, which is a hydrophilic drug and effective to pernicious anaemia, and which is a red crystalline powder likely to absorb humidity, easy to dissolve in water and alcohol, and slightly unstable in the environment of light, strong acid, and base. […] Such a phenomenon is attributed to the fact that the greater the concentration difference, the higher the driving force of drug molecule diffusion.

Molecule	release quantity of Azithromycin with respect to temperature (encapsulation-type drug-carrying contact lens, FIG. 6)	release of Vitamin B12 versus drug-carrying contact lens free of drug carriers (drug-soaking type drug-carrying contact lens containing the drug carriers, FIG. 7(a))	drug-release rate with respect to drug concentration (drug-soaking type drug-carrying contact lens, different concentrations of Vitamin B12, FIG. 7(b))
CC[C@H]1OC(=O)[C@H](C)[C@@H](O[C@H]2C[C@@](C)(OC)[C@@H](O)[C@H](C)O2)[C@H](C)[C@@H](O[C@@H]2O[C@H](C)C[C@H](N(C)C)[C@H]2O)[C@](C)(O)C[C@@H](C)CN(C)[C@H](C)[C@@H](O)[C@]1(C)O [Azithromycin]	increases with the temperature		
Vitamin B12		more slowly	increases with the concentration of the drug molecules
